Laboratory results from patent US20230174936A1, “IMMUNOSUPPRESSANT-RESISTANT T-CELLS FOR ADOPTIVE IMMUNOTHERAPY” (CHARITÉ - UNIVERSITÄTSMEDIZIN BERLIN, priority 2020, published 2023).
Entries after “also recorded” stand apart in the source; their conditions may differ.

Legend:
Regulatory T cells = assay: Treg expansion in medium with or without calcineurin inhibitors; format: cell-based, human; conditions: Tac 6 ng/ml
Experimental: Edited and control Treg cells were subsequently expanded in medium with or without different calcineurin inhibitors and subsequently analysed for cell expansion (A) and with flow cytometry (B+C). […] CTLA4 is known to suppress T cells and modulate pro-inflammatory responses by dendritic cells. […] Light bars are untouched expanded Treg, dark bars are FKBP12^k.o.expanded Treg. Tac was used at 6 ng/ml, CsA was used at 125 ng/ml, which corresponds to pharmacological doses that may, e.g., found in patient serum.
FKBP12^KO and control Treg cells were subsequently expanded in medium with or without different calcineurin inhibitors and subsequently analysed for cell expansion (FIG. 11 A) and with flow cytometry (FIG. 11 B+C). […] CTLA4 is known to suppress T cells and modulate pro-inflammatory responses by dendritic cells.

[1] = test system: target cells loaded with SARS-CoV-2 peptides
[2] = test system: CMV-specific T-cell products; assay: CMV-specific stimulation at day 21, intracellular cytokines by flow cytometry; format: cell-based, human
Experimental: FIG. 2: Functional profiles of CMV-specific T-cell products with disrupted FKBP12 CMV-specific stimulation of T-cell products at day 21 of culture using antigen-presenting cells (autologous lymphoblastic B-cell lines) pulsed with overlapping peptide pools of CMVIE-1 and CMVpp65 (6 h stimulation). Cytokines were captured in T-cells by addition of Brefeldin A after 1 h of stimulation and cells were stained using a fixation/permeabilization kit and fluorescently 1a-belled antibodies. Data were acquired by multicolor flow cytometry. Immunosuppressants were added where indicated at the following clinically relevant doses: Tac = 6 ng/ml Tacrolimus; CsA ═ 120 ng/ml Cyclosporine A; Tac/Pred/MPA = 6 ng/ml Tacrolimus + 0.57 µg/ml Prednisolone + 2.7 µg/ml Mycophenolic acid. Stars symbolize p-values < 0.05, which were determined by tests for normal distribution (Shapiro-Wilk and Kolmogorov-Smirnov tests), followed by one-way ANOVA (normally distributed data sets) or Friedman test (not normally distributed data sets) and paired t-tests (normally distributed data sets) or Wilcoxon matched pairs signed rank tests (not normally distributed data sets) as posttests. […]

K562 cells = assay: NK92 cytotoxicity in co-culture with K562; format: cell-based, human; conditions: 1:1 with K562, n = 1
Experimental: FIG. 19: Killing efficiency pf FKBP12^KO NK cells NK92 were electroporated with Cas9 protein and sgRNA#1(Table 1). After 5 days they were incubated with K562 cells at a ratio of 1:1. Killing capacity was calculated by the reduction in frequency of K562 cells. n = 1.
We performed a proof-of-principle experiment to confirm feasibility of FKBP12^KO in the NK cell line NK92. Four days prior to the experiment, FKBP12^KO NK92 cells were electroporated with Cas9 + FKBP12 sgRNA#1 (Table 1). NK cell cytotoxicity was assessed by co-culture with the MHC class I deficient erythroleukemia cell line K562. To this end, NK92 and CFSE-labeled K562 cells were mixed at a 1:1 ratio. After a total of 8 hours, the reaction was stopped by washing with cold 1X PBS. The cells were stained with Life Dead UV before fixation and permeabilization (IC Fix/Perm Kit, Thermo Fisher). Fixation was performed for 30 minutes at RT. The stained cells were analyzed with a Cytoflex LX. Analysis was performed with FlowJo v10.

Molecule | proliferation of untouched Tregs (Regulatory T cells) | T-cell-mediated cytotoxic killing of target cells [1] | proportion of IFNγ-producers ([2]; effect of Tacrolimus on T-cells of CMV-TCPs) | killing efficiency in non-edited NK92 cells (K562 cells) | cytokine producers / T-cell function in the presence of Tacrolimus ([2]; 6 ng/ml Tacrolimus, TCPs edited with the named sgRNA)
C=CC[C@@H]1/C=C(\C)C[C@H](C)C[C@H](OC)[C@H]2O[C@@](O)(C(=O)C(=O)N3CCCC[C@H]3C(=O)O[C@H](/C(C)=C/[C@@H]3CC[C@@H](O)[C@H](OC)C3)[C@H](C)[C@@H](O)CC1=O)[C@H](C)C[C@@H]2OC [Tacrolimus] | reduced the proliferation | not affected | significantly reduced | decreased killing efficiency | –
sgRNA#2: FKBP12-specific guide RNA targeting SEQ ID NO: 1; full sequence SEQ ID NO: 17 (nucleic acid, synthetic chemically modified sgRNA, pattern not given here) guide: GGGCGCACCUUCCCCAAGCGGUUUUAGAGCUAGAAAUAGCAAGUUAAAAUAAGGCUAGUCCGUUAUCAACUUGAAAAAGUGGCACCGAGUCGGUGC | – | – | – | – | superior function in maintaining T-cell function; also recorded: retained physiological levels of cytokine producers
